Data published in patent publication US8722043B2, “Induction of p53 expression by neutralization of neuropilin-2 for the treatment of cancers” (Diaclone, priority 2008, dated 2014).

How the values were obtained:
[1] = system: Colo320 human tumour cells; test: Tumour colony formation in semi-solid agar medium; type: cell-based; conditions: for number of colonies formed: 50 μg/ml, 10 days post-seeding (FIG. 9)
Procedure: In order to determine whether the ITAC-B1 antibody has a neutralizing activity on the formation of tumour colonies in vitro, tests for tumour colony formation in vitro in a semi-solid agar medium containing agar were carried out. The principle of this test is based on bringing Colo320 human tumour cells (which express NRP-2 at their membrane surface and, furthermore, naturally secrete VEGF into the culture medium) into contact with the ITAC-B1 antibody. 4000 Colo320 cells are seeded into each well of a 24-well plate, in a semi-solid medium containing agar, and in the presence of 10 μg/ml of anti-NRP-2 antibody ITAC-B1. By way of comparison, the same test is carried out in the presence of cytotoxic agents with a proven action, i.e. 5-fluorouracil (5-FU), used at a rate of 50 μg/ml, or of Avastin® (bevacizumab: humanized monoclonal antibodies directed against VEGF), used at a rate of 50 μg/ml, or in the presence of a control isotype antibody (mouse IgG1 monoclonal antibody (BZ1)), used at a rate of 10 μg/ml.
At 10 days post-seeding, the colonies were counted under an optical microscope.
Since neuropilin-2 is a coreceptor for VEGF, it was verified whether the activity of ITAC-B1 was dependent on an interaction between NRP-2 and the VEGF produced by the Colo320 cells. With this aim, the tests for Colo320-cell colony formation were carried out under the conditions described above, and in the presence of ITAC-B1 antibody (10 μg/ml), of bevacizumab (50 μg/ml) or of control antibody (10 μg/ml), used separately or in combination.
The results are given in FIG. 10: the y-axis represents the number of colonies formed; on the x-axis, the antibodies present in the culture medium are indicated by a “+”.

HT29-NRP-2 tumour cells = test: HT29-NRP-2 subcutaneous xenograft, tumour volume; type: in vivo, immunodeficient mice; conditions: group C: 5-FU intraperitoneally 20 mg/kg D0 to D4, 100 mg/kg at D9
Procedure: HT29-NRP-2 tumour cells were injected subcutaneously into 20 immunodeficient mice, at a rate of 1×10^6 cells per mouse, in the right flank. 10 days after the injection, the tumours measure approximately 5 mm×5 mm.
In accordance with the protocol described above, group B was inoculated with ITAC-B1 at D0 (12 mg/kg), D3 (6 mg/kg), D7 (12 mg/kg) and D10 (6 mg/kg). Group C was inoculated with 20 mg/kg of 5-FU from D0 to D4 and then with 100 mg/kg at D9. Group D was inoculated with ITAC-B1 at D0 (12 mg/kg), D3 (6 mg/kg), D7 (12 mg/kg) and D10 (6 mg/kg) and with 20 mg/kg of 5-FU from D0 to D4 and 100 mg/kg of 5-FU at D9.
The tumours were measured twice a week, and the volume of the tumours was calculated with the formula: V (mm^3)=d^2×D/2.
FIG. 21 represents the tumour volume as a function of time. Group A (PBS control) is represented by (⋄), group B (mice inoculated with the ITAC-B1 antibody) is represented by (▪), group C (mice inoculated with 5-FU) is represented by (Δ), and group D (mice inoculated both with the ITAC-B1 antibody and with 5-FU) is represented by (x).

mutant p53 proteins = conditions: model of human xenograft; review Levesque & Eastman 2007; cited from earlier work
Colo320siRNA-ctrl cells = test: Annexin V-APC apoptosis test with or without PFTα pretreatment; type: cell-based, human; conditions: PFTα 27 μM, 18 h pretreatment
Procedure: In order to correlate the induction of apoptosis with p53 expression, the Colo320siRNA-ctrl cells were pretreated for 18 h with a chemical inhibitor of p53, pifithrin-α, at a dose of 27 μM (PFTα, Sigma). After pretreatment, the cells are washed twice with 3 ml of PBS and placed in a 24-well plate, at a rate of 100 000 cells/well in 1 ml of RPMI-10% FCS. Non-pretreated cells are placed under the same conditions. The cells are incubated for 5 h with a control murine isotype antibody (BZ1) or ITAC-B1 at 20 μg/ml and the apoptosis is measured as described above.
FIG. 14 represents the results of the apoptosis-induction experiments carried out with the Colo320siRNA-ctrl cells pretreated or not pretreated with PFTα. The percentage of cells labelled with Annexin V-APC is indicated on the y-axis, the cell culture conditions are indicated on the x-axis (control consisting of medium, control consisting of medium supplemented with a control isotype antibody -BZ1-, test consisting of medium supplemented with the ITAC-B1 antibody). The results of the tests carried out with cells pretreated with PFTα are represented in light grey, those of the tests carried out with non-pretreated cells are represented in dark grey.

HT29-NRP-2 cells = test: Annexin V-APC apoptosis test; type: cell-based, human; conditions: selection criterion of the hybridoma clones
Procedure: In order to determine the ability of the ITAC-B1 antibody to induce apoptosis of tumour cells expressing NRP-2, an in vitro Annexin V-APC apoptosis test was carried out (BD Pharmingen, San Diego, Calif.). This test is based on the externalization of phosphatidylserin by apoptotic cells and on the binding of Annexin V-APC to this molecule.
1 ml of DMEM medium containing 10% of inactivated FCS and 100 000 HT29-NRP-2 cells or 100 000 HT29ctrl cells were seeded, per well, into a 24-well Nunc plate. […] In parallel, “cells alone” controls were carried out, as were negative controls (anti-human mouse IgG1 antibody (BZ1) at the same concentrations as the ITAC-B1 antibody).
[…] When the cells began to detach, 500 μl of DMEM medium-10% FCS were added per well. The cells were then centrifuged, washed twice in PBS, and then taken up in 300 μl of 1× binding buffer (provided in the kit), and then 5 μl of Annexin V-APC were subsequently added to 100 μl of this solution.
The panels of FIG. 13 are point-cloud representations of the flow cytometry analysis. For each of the panels, the fluorescence intensity (corresponding to the labelling of the cells with Annexin V-APC) is represented on the x-axis. The y-axis indicates the granulosity of the cells (Side Scatter or SSC). […] The percentage of cells labelled with Annexin V-APC (corresponding to the percentage of cells having entered into apoptosis) is indicated at the bottom-right of each panel.
The apoptosis induced was then measured by labelling with Annexin V-APC as described above.
The panels of FIG. 15 are point-cloud representations of the flow cytometry analysis. For each of the panels, the fluorescence intensity (corresponding to the labelling of the cells with Annexin V-APC) is represented on the x-axis. The y-axis indicates the granulosity (side scatter) of the cells. The conditions of treatment with the antibodies and the Avastin® are indicated to the left of the panels. The percentage of cells labelled with the Annexin V-APC, corresponding to the percentage of cells having entered into apoptosis, is indicated at the top-right of each panel.

p53 protein = test: Western blotting of p53 expression after antibody treatment; type: cell-based, human; conditions: HT29-NRP-2 and Colo320^siRNA-ctrl; 20 ng/ml, 48 hours
Procedure: The HT29, HT29-NRP-2, Colo320^siRNA-ctrl tumour cells and Colo320^siRNA-NRP-2 were exposed to 20 ng/ml of ITAC-B1 antibody or of control antibody, and cultured for 48 hours. After lysis of the cell lines, migration of the protein pellets obtained on a 10% polyacrylamide gel (10 μg of protein per well) and then transfer onto a PVDF membrane, the membrane was incubated overnight with the anti-p53 primary antibody (BD Biosciences, mouse anti-human p53) diluted to 1/500. After washing in TBS/0.1% Tween20, the membranes were incubated for 1 hour with an anti-mouse IgG-HRP secondary antibody diluted to 1/6000. The results are represented in FIG. 19.

Molecule: O=c1[nH]cc(F)c(=O)[nH]1 [5-FU, 5-fluorouracil, reference compound]
- number of colonies formed [1]: approximately 40
- tumour volume (HT29-NRP-2 tumour cells): reduction in tumour volume is observed starting from D14

Molecule: COc1ccc(/C=C/c2nc(NCCCN(C)C)c3ccccc3n2)cc1 [CP-31398]
- tumour growth (mutant p53 proteins): successfully used to inhibit tumour growth

Molecule: CCC(=O)OCN1C(=O)C=CC1=O [MIRA-1]
- tumour growth (mutant p53 proteins): successfully used to inhibit tumour growth

Molecule: Cc1ccc(C(=O)Cn2c3c(sc2=N)CCCC3)cc1 [PFTα, pifithrin-α, reference compound]
- effect of pretreatment on ITAC-B1-dependent apoptosis (Colo320siRNA-ctrl cells): prevents the ITAC-B1-dependent apoptosis

Molecule: O=C1C2CCN(CC2)C1(CO)CO [PRIMA-1]
- tumour growth (mutant p53 proteins): successfully used to inhibit tumour growth

Molecule: bevacizumab [Avastin®]
- number of colonies formed [1]: approximately 120
- effect on the proliferation of the Colo320 cells (number of colonies) ([1]; bevacizumab 50 μg/ml (FIG. 10)): very little effect

B1: ITAC-B2: anti-human neuropilin-2 monoclonal antibody, VH SEQ ID No. 6, VL SEQ ID No. 8 (antibody, listed as Mus musculus, V domains shown)
VH: EVQLEESGGGLVKPGGSLKLSCAASGFTFSDYYMYWVRQTPEKRLEWVATISDGGSYTYYPDSIKGRFTISRDNARNNLYLQMSSLKSEDTAMYYCARGGPYRSWFAFWGQGTLVTVSA
VL: DIVITQTPLSLPVSLGDQASISCRSSQSIVYSNGNTYLEWYLQKPGQSPKLLIYKVSNRFSGVPDRFSGSGSGTDFTLKISRVEAEDLGVYYCFQGSHVPPTFGGGTKLEIK
- ability to induce apoptosis of tumour cells expressing neuropilin-2 (selection of clones) (HT29-NRP-2 cells): ability to induce apoptosis of tumour cells expressing neuropilin-2
- expression of p53 in lines which express NRP-2 (p53 protein): have the Ability to Induce Expression of the p53 Protein
